Publication PMC4965013, “Open Source Drug Discovery with the Malaria Box Compound Collection for Neglected Diseases and Beyond” (PLoS Pathogens, 2016)

How the values were obtained:
[1] = system: P. falciparum 3D7 trophozoites; test: Metabolomic fingerprint profiling LC-MS; type: cell-based, Plasmodium falciparum; set-up: UDP-D-glucose / ADP-D-glucose: unit not given here; conditions: for Acetyllysine / N-acetyl-L-ornithine / N-carbamoyl-L-aspartate / NADPH / dAMP / dCMP / dTDP / dTMP / dTTP / dihydroorotate / orotate / DLH / DLS/SDL/SID / PD / PEE / PVNF / 3-phosphoglycerate / ADP-D-glucose / ATP / CDP / D-sedoheptulose-1/7-phosphate / FAD / GMP / NAD+ / NADP+ / Octoluse Bisphosphate / Pyroglutamic acid / UDP-D-glucose / UDP-D-glucuronate / UDP-N-acetyl-glucosamine / UDP / UMP / UTP / a-ketoglutarate / citrate/isocitrate / cytidine / dATP / dGMP/AMP / fumarate / glucose-1/6-phosphate / glycerate / guanine / guanosine / hypoxanthine / indole / inosine / nicotinate / ornithine / phosphoenolpyruvate / pyruvate / ribose-phosphate / sarcosine/alanine / sn-glycerol-3-phosphate / succinate/methylmalonic acid / uridine / xanthosine: S2 Table Metabolomics; for Acetyllysine: metabolite Acetyllysine; for N-acetyl-L-ornithine: metabolite N-acetyl-L-ornithine; for N-carbamoyl-L-aspartate: metabolite N-carbamoyl-L-aspartate; for NADPH: metabolite NADPH; for dAMP: metabolite dAMP; for dCMP: metabolite dCMP; for dTDP: metabolite dTDP; for dTMP: metabolite dTMP; for dTTP: metabolite dTTP; for dihydroorotate: metabolite dihydroorotate; for orotate: metabolite orotate; for DLH: peptide DLH; for DLS/SDL/SID: peptide DLS/SDL/SID; for PD: peptide PD; for PEE: peptide PEE; for PVNF: peptide PVNF; for 3-phosphoglycerate: metabolite 3-phosphoglycerate; for ADP-D-glucose: metabolite ADP-D-glucose; for ATP: metabolite ATP; for CDP: metabolite CDP; for CDP / D-sedoheptulose-1/7-phosphate / GMP / Octoluse Bisphosphate / UDP / UMP / UTP / citrate/isocitrate / dGMP/AMP / fumarate / glucose-1/6-phosphate / glycerate / guanine / guanosine / inosine / pyruvate / sarcosine/alanine / succinate/methylmalonic acid / uridine / xanthosine: change in metabolite level after compound treatment; for D-sedoheptulose-1/7-phosphate: metabolite D-sedoheptulose-1/7-phosphate; for FAD: metabolite FAD; for GMP: metabolite GMP; for NAD+: metabolite NAD+; for NADP+: metabolite NADP+; for Octoluse Bisphosphate: metabolite Octoluse Bisphosphate; for Pyroglutamic acid: metabolite Pyroglutamic acid; for UDP-D-glucose: metabolite UDP-D-glucose; for UDP-D-glucuronate: metabolite UDP-D-glucuronate; for UDP-N-acetyl-glucosamine: metabolite UDP-N-acetyl-glucosamine; for UDP: metabolite UDP; for UMP: metabolite UMP; for UTP: metabolite UTP; for a-ketoglutarate: metabolite a-ketoglutarate; for citrate/isocitrate: metabolite citrate/isocitrate; for cytidine: metabolite cytidine; for dATP: metabolite dATP; for dGMP/AMP: metabolite dGMP/AMP; for fumarate: metabolite fumarate; for glucose-1/6-phosphate: metabolite glucose-1/6-phosphate; for glycerate: metabolite glycerate; for guanine: metabolite guanine; for guanosine: metabolite guanosine; for hypoxanthine: metabolite hypoxanthine; for indole: metabolite indole; for inosine: metabolite inosine; for 2_3-Diphosphoglyceric acid / 4-phosphopantothenate / 6-phospho-D-gluconate / FMN / IMP / Pyrophosphate / Sedoheptoluse bisphosphate / cyclic-AMP / glutathione disulfide / lactate / myo-inositol: metabolite level change after treatment; for nicotinate: metabolite nicotinate; for ornithine: metabolite ornithine; for phosphoenolpyruvate: metabolite phosphoenolpyruvate; for pyruvate: metabolite pyruvate; for ribose-phosphate: metabolite ribose-phosphate; for sarcosine/alanine: metabolite sarcosine/alanine; for sn-glycerol-3-phosphate: metabolite sn-glycerol-3-phosphate; for succinate/methylmalonic acid: metabolite succinate/methylmalonic acid; for uridine: metabolite uridine; for xanthosine: metabolite xanthosine
P. falciparum = test: EC50 listed in S2 Table Metabolomics (used to set the concentration tested); type: cell-based; conditions: Plasmodium falciparum; EC50 used for Factor_XEC50 in metabolomics; read-out: EC50_nM

## CC1CN(C(=O)c2sc3ccccc3c2Cl)CC(C)O1 (stereo not drawn) [MMV020492]
[1]
  Acetyllysine: -0.0147
  N-acetyl-L-ornithine: -0.05191
  N-carbamoyl-L-aspartate: 0.1461
  NADPH: 1.076
  dAMP: 0.05557
  dCMP: 0.1257
  dTDP: 0.2505
  dTMP: 0.3742
  dTTP: 0.08279
  dihydroorotate: 0.2809
  orotate: 0.03682
  DLH: 0.1005
  DLS/SDL/SID: 0.08855
  PD: 0.1297
  PEE: 0.04353
  PVNF: 0.1047
  3-phosphoglycerate: 0.09132
  ADP-D-glucose: 0.03984
  ATP: 0.0738
  CDP: 0.1835
  D-sedoheptulose-1/7-phosphate: 0.08985
  FAD: 0.03625
  GMP: 0.3386
  NAD+: 0.04927
  NADP+: 0.004356
  Octoluse Bisphosphate: 0.06954
  Pyroglutamic acid: 0.3822
  UDP-D-glucose: 0.04537
  UDP-D-glucuronate: -0.02953
  UDP-N-acetyl-glucosamine: 0.08846
  UDP: 0.2013
  UMP: 0.2191
  UTP: 0.01852
  a-ketoglutarate: 0.02481
  citrate/isocitrate: -0.02888
  cytidine: -0.05556
  dATP: -0.009271
  dGMP/AMP: 0.09845
  fumarate: 0.08721
  glucose-1/6-phosphate: -0.03526
  glycerate: 0.2426
  guanine: 0.0471
  guanosine: 0.114
  hypoxanthine: -0.07881
  indole: 0.1523
  inosine: -0.03708
  2_3-Diphosphoglyceric acid: 0.1949
  4-phosphopantothenate: 0.1246
  6-phospho-D-gluconate: 0.07439
  FMN: 0.2041
  IMP: -0.02839
  Pyrophosphate: 0.1402
  Sedoheptoluse bisphosphate: 0.05967
  cyclic-AMP: 0.07392
  glutathione disulfide: 0.1287
  lactate: 0.06153
  myo-inositol: 0.04445
  nicotinate: 0.03208
  ornithine: -0.1593
  phosphoenolpyruvate: 0.09247
  pyruvate: -0.02843
  ribose-phosphate: -0.3604
  sarcosine/alanine: 0.3511
  sn-glycerol-3-phosphate: 0.4063
  succinate/methylmalonic acid: 0.003908
  uridine: 0.1407
  xanthosine: 0.3607
P. falciparum
  EC50: 25.5 nM

## CCCc1cc(O)c2c3c(c(=O)oc2c1)CN(C)CC3 [MMV665841]
[1]
  Acetyllysine: -2.612
  N-acetyl-L-ornithine: -1.949
  N-carbamoyl-L-aspartate: -0.955
  NADPH: 0.07097
  dAMP: -0.5338
  dCMP: 0.378
  dTDP: -0.09857
  dTMP: -0.08494
  dTTP: 0.3392
  dihydroorotate: -0.7381
  orotate: -0.6991
  DLH: -2.223
  DLS/SDL/SID: -2.0523
  PD: -2.506
  PEE: -2.465
  PVNF: -2.267
  3-phosphoglycerate: 0.2411
  ADP-D-glucose: 0.03562
  ATP: 0.3706
  CDP: -0.1497
  D-sedoheptulose-1/7-phosphate: -0.0969
  FAD: 0.4757
  GMP: 0.7431
  NAD+: 0.1538
  NADP+: 0.3743
  Octoluse Bisphosphate: -0.2246
  Pyroglutamic acid: 0.8685
  UDP-D-glucose: 0.1781
  UDP-D-glucuronate: 0.2234
  UDP-N-acetyl-glucosamine: 0.1163
  UDP: -0.165
  UMP: 0.01879
  UTP: 0.1488
  a-ketoglutarate: -1.017
  citrate/isocitrate: -0.03416
  cytidine: 0.6575
  dATP: -0.1225
  dGMP/AMP: -0.03336
  fumarate: -0.991
  glucose-1/6-phosphate: 0.02998
  glycerate: -0.7467
  guanine: -0.195
  guanosine: -0.4835
  hypoxanthine: 0.1991
  indole: -0.2191
  inosine: 0.006205
  2_3-Diphosphoglyceric acid: 0.1243
  4-phosphopantothenate: -0.4271
  6-phospho-D-gluconate: -0.03292
  FMN: 0.1348
  IMP: -0.4143
  Pyrophosphate: 0.01603
  Sedoheptoluse bisphosphate: -0.2052
  cyclic-AMP: -0.23
  glutathione disulfide: -0.3848
  lactate: -0.3481
  myo-inositol: -0.7715
  nicotinate: -0.06082
  ornithine: -0.04541
  phosphoenolpyruvate: 0.2681
  pyruvate: -0.1725
  ribose-phosphate: -0.5158
  sarcosine/alanine: -1.291
  sn-glycerol-3-phosphate: -0.1021
  succinate/methylmalonic acid: -0.1585
  uridine: -0.2002
  xanthosine: -0.28
P. falciparum
  EC50: 146 nM

## CCOc1ccc(-c2nonc2NC(=O)c2cccc(C)c2)cc1OCC [MMV665805]
[1]
  Acetyllysine: -2.655
  N-acetyl-L-ornithine: -3.165
  N-carbamoyl-L-aspartate: -1.056
  NADPH: 0.0179
  dAMP: -0.2659
  dCMP: -0.0001746
  dTDP: -0.4156
  dTMP: 0.168
  dTTP: -1.808
  dihydroorotate: -0.8461
  orotate: -0.316
  DLH: -3.43
  DLS/SDL/SID: -2.376
  PD: -4.256
  PEE: -1.272
  PVNF: -3.291
  3-phosphoglycerate: -0.4238
  ADP-D-glucose: -0.07023
  ATP: -0.872
  CDP: 0.2433
  D-sedoheptulose-1/7-phosphate: 0.2738
  FAD: -1.216
  GMP: -1.407
  NAD+: -0.2783
  NADP+: 0.09325
  Octoluse Bisphosphate: -2.628
  Pyroglutamic acid: 0.2488
  UDP-D-glucose: -0.08929
  UDP-D-glucuronate: 0.1004
  UDP-N-acetyl-glucosamine: -0.1333
  UDP: 0.1418
  UMP: -2.433
  UTP: -1.276
  a-ketoglutarate: 0.06268
  citrate/isocitrate: -0.7764
  cytidine: -0.5056
  dATP: -1.548
  dGMP/AMP: 0.3312
  fumarate: -2.16
  glucose-1/6-phosphate: -1.496
  glycerate: -1.128
  guanine: -1.378
  guanosine: -1.192
  hypoxanthine: 0.2303
  indole: 0.06669
  inosine: -2.254
  2_3-Diphosphoglyceric acid: -1.518
  4-phosphopantothenate: -1.982
  6-phospho-D-gluconate: -1.236
  FMN: -1.528
  IMP: -1.238
  Pyrophosphate: -1.477
  Sedoheptoluse bisphosphate: -1.741
  cyclic-AMP: -2.892
  glutathione disulfide: -1.641
  lactate: -4.838
  myo-inositol: -5.977
  nicotinate: -0.4798
  ornithine: -0.1601
  phosphoenolpyruvate: 0.09842
  pyruvate: -2.577
  ribose-phosphate: -0.0001746
  sarcosine/alanine: -2.25
  sn-glycerol-3-phosphate: -0.6654
  succinate/methylmalonic acid: -1.698
  uridine: -2.032
  xanthosine: 0.4761
P. falciparum
  EC50: 117 nM
